The record followed here is patent US11534434B2 (Karuna Therapeutics, Inc., priority 2019, dated 2022).

Each structure is given as a SMILES string. Where only a bound is given, the exact number is not on record here.

One experiment has as its target T1, human M5 mAChR (Homo sapiens, UniProt P08912).
T1 construct: expressed in transfected cells
T1 sequence (P08912 1-532): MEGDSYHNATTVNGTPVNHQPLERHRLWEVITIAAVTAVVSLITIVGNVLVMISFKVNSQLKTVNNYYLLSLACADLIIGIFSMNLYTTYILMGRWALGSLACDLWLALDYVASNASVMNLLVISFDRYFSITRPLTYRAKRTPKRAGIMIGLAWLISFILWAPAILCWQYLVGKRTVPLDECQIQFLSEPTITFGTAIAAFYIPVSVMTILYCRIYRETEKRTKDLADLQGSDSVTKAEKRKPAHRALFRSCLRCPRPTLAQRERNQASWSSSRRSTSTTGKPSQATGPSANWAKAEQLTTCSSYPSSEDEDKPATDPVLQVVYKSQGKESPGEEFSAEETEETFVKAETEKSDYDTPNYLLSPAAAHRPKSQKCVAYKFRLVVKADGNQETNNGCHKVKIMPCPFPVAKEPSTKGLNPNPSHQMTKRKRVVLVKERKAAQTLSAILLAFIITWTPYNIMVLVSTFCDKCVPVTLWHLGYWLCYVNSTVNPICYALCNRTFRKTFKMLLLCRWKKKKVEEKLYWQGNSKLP
The experiment in a line: Whole-cell functional agonist activity, FLIPR Ca2+ release, CHOK1-based human M5 mAChR stable cell line. The note with it: for EC50: agonist, FLIPR Ca2+ release, CHOK1 human M5 cells; for Emax: top of curve, % activity vs MAX control ligand, FLIPR Ca2+. The source says:
(§1) Whole-cell functional agonist activity in cells expressing recombinant human muscarinic receptor subtypes.
(§2) ThermoFisher's FLIPR™ (Fluorescence Imaging Plate Reader) was used to quantify Ca^2+ release, a functional effect associated with Gaq-coupled M1 and M5 mAChRs. CisBio's phospho-ERK (pERK) Thr202/Tyr204 was used to evaluate Gai/o-coupled M2 and M4 mAChRs responses.
One day before the assay, M1, M3, and M5 cells were thawed out and plated at 10,000 cells/well into black-walled, clear-bottom, Poly-D-lysine coated 384-well microplates and incubated at 37° C. and 5% CO2 in MEME+10% FBS+1× penicillin/streptomycin/glutamine, for the M1 and M3 cell lines and F-12+10% FBS+1× penicillin/streptomycin/glutamine for the M5 cell line. […] The M1 and M5 responses were analyzed using the CBIS data analysis suite (ChemInnovation, CA).
(§3) Percentage activity was calculated using the following formula: % Activity=100%×(mean RFU of test sample mean RFU of vehicle control)/(mean MAX RFU control ligand mean RFU of vehicle control) where RFU is relative fluorescence unit. The M2 and the M4 cells were thawed out one day before the assay and plated at 2,000 and 1,000 cells per well, respectively, in […] of DMEM/F12+10% FBS in ProxiPlate 384-well white-walled, white-bottom tissue culture-treated plates and incubated at 37° C. and 5% CO2 overnight. Before the assay, cells were serum-starved at 37° C. in 5% CO2 for 4 hours by replacing culture media with […] of F12 media with 8 mM HEPES. The pERK assay was run according to assay kit instructions with minor volume modifications outlined below.

In a further experiment the target is T2, human M3 mAChR (Homo sapiens, UniProt P20309).
T2 construct: expressed in transfected cells
T2 sequence (P20309 whole entry): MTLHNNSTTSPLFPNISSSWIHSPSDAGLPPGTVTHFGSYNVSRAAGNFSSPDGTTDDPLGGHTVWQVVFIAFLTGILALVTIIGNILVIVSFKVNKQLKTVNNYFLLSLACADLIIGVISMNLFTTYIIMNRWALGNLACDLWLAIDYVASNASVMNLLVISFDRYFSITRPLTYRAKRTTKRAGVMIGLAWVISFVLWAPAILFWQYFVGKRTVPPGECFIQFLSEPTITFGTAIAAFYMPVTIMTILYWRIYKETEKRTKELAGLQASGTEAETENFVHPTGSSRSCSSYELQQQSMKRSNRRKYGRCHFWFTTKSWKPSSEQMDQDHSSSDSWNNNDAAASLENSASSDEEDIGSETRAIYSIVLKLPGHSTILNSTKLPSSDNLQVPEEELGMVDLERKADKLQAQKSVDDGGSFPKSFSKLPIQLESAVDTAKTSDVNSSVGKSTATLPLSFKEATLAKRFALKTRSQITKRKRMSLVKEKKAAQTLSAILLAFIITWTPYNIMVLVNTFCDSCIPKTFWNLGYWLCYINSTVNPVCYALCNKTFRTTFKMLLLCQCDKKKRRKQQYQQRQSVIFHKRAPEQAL
Description: Whole-cell functional agonist activity, FLIPR Ca2+ release, U2OS-based human M3 mAChR stable cell line. As to conditions: for EC50: agonist, FLIPR Ca2+ release, U2OS human M3 cells; for Emax: top of curve, % activity vs MAX control ligand, FLIPR Ca2+.
Source text: as §1, §2
One day before the assay, M1, M3, and M5 cells were thawed out and plated at 10,000 cells/well into black-walled, clear-bottom, Poly-D-lysine coated 384-well microplates and incubated at 37° C. and 5% CO2 in MEME+10% FBS+1× penicillin/streptomycin/glutamine, for the M1 and M3 cell lines and F-12+10% FBS+1× penicillin/streptomycin/glutamine for the M5 cell line. On the day of the test, the media was aspirated and replaced with […] fluo-4 dye loading buffer (1× dye, 1× additive A and 2.5 mM fresh probenecid in HBSS and 20 mM HEPES) and incubated at 37° C. and 5% CO2 for 45 minutes. After the incubation, cells were removed from the incubator, […] of HBSS and 20 mM HEPES was added for a total volume of […], and the cells were allowed to equilibrate at room temperature for 15 minutes in the dark before compounds were applied, by adding 4× compound solution in […] of HBSS, 0.4% DMSO and 20 mM HEPES buffer (made from a 10 mM compound stock solution in 100% DMSO), and responses were recorded for 2 minutes in FLIPR Tetra after compound administration. The M1 and M5 responses were analyzed using the CBIS data analysis suite (ChemInnovation, CA).
as §3

The target of a further experiment is T3, human M2 mAChR (Homo sapiens, UniProt P08172).
T3 construct: expressed in transfected cells
T3 sequence (P08172 1-466): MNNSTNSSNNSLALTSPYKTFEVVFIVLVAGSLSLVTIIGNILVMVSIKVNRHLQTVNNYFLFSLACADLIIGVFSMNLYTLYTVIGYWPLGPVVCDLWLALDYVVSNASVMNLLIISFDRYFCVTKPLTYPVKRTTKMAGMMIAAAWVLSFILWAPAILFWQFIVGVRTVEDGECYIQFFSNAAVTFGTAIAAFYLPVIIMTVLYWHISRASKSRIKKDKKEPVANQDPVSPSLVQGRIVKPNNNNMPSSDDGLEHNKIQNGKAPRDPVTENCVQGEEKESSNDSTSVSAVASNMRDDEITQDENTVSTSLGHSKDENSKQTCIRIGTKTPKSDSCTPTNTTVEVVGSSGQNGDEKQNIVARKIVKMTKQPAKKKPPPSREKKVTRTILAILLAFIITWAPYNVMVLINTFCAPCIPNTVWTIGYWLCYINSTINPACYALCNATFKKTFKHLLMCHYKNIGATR
The experiment in a line: Whole-cell functional agonist activity, phospho-ERK (pERK), CHOK1-based human M2 mAChR stable cell line. The note with it: for EC50: agonist, CHOK1 human M2 cells; for M2 Top (%): top of curve, % of min (DMSO) and max (10 mM Acetylcholine) responses. On the procedure: as §1, §2, §3
Compound addition was carried out by adding 3× compound solution in […] of media with 0.3% DMSO (made from a 10 mM compound stock solution in 100% DMSO) for 5 minutes before the reaction was terminated by adding […] lysis and blocking solution. Cells were left in the lysis solution for 30 minutes before […] of antibody (Eu and d2) solution was added for an additional 2-hour incubation while protected from light. The plates were then read on laser Pherastar using the TR-FRET protocol.

As to `CN1CCC=C(c2nsnc2OCCCCCC(F)F)C1` [Example 6, 3-((6,6-difluorohexyl)oxy)-4-(1-methyl-1,2,5,6-tetrahydropyridin-3-yl)-1,2,5-thiadiazole], the EC50 on human M5 mAChR was 14.7 nM; on human M3 mAChR, above 10000 nM; on human M2 mAChR, above 34 nM. The Emax at human M5 mAChR amounted to 95%; on human M3 mAChR, 11%. Further, the “M2 Top (%)” value on human M2 mAChR is 2%.

On human M5 mAChR, `CCC(F)(F)CCCOc1nsnc1C1=CCCN(C)C1` [Example 9, 3-((4,4-Difluorohexyl)oxy)-4-(1-methyl-1,2,5,6-tetrahydropyridin-3-yl)-1,2,5-thiadiazole] registered a concentration giving a half-maximal response (EC50) of 140 nM and an Emax of 40%. At human M3 mAChR, this molecule came in with an EC50 above 10000 nM and an Emax of 2%. Further, at human M2 mAChR, the EC50 was above 34 nM and the “M2 Top (%)” value is 1%.

At human M5 mAChR, `CN1CCC=C(c2nsnc2OCCCCCC(F)(F)F)C1` [Example 1, 3-(1-Methyl-1,2,5,6-tetrahydropyridin-3-yl)-4-((6,6,6-trifluorohexyl)oxy)-1,2,5-thiadiazole] displayed an EC50 of 22.4 nM and a maximal effect (Emax) of 85%. On human M3 mAChR, the concentration giving a half-maximal response (EC50) is above 10000 nM and the Emax amounted to 16%. Also, at human M2 mAChR, the EC50 was above 34 nM and the “M2 Top (%)” value amounted to 1%.

Take `CCCCC(F)(F)COc1nsnc1C1=CCCN(C)C1` [Example 11, 3-((2,2-Difluorohexyl)oxy)-4-(1-methyl-1,2,5,6-tetrahydropyridin-3-yl)-1,2,5-thiadiazole]: on human M5 mAChR, it took 2290 nM to reach a half-maximal effect (EC50) and the Emax was 45%. On human M3 mAChR, this molecule registered an EC50 above 10000 nM and a maximal response (Emax) of 3%. On human M2 mAChR, the EC50 is above 34 nM and the “M2 Top (%)” value is listed as 0%.

As for `CN1CCC=C(c2nsnc2OCCCCC(C)(F)F)C1` [Example 8, 3-((5,5-Difluorohexyl)oxy)-4-(1-methyl-1,2,5,6-tetrahydropyridin-3-yl)-1,2,5-thiadiazole], the EC50 on human M5 mAChR was 27.2 nM; on human M3 mAChR, above 10000 nM; on human M2 mAChR, above 34 nM. Further, the maximum response (Emax) is 85% on human M5 mAChR and 7% at human M3 mAChR. Also, at human M2 mAChR, the “M2 Top (%)” value came out at 0%.

On human M5 mAChR, `CN1CCC=C(c2nsnc2OCCCCCCF)C1` [Example 7, 3-((6-Fluorohexyl)oxy)-4-(1-methyl-1,2,5,6-tetrahydropyridin-3-yl)-1,2,5-thiadiazole] had a 50% effective concentration (EC50) of 13.2 nM and an Emax of 90%. Besides, at human M3 mAChR, the EC50 was above 10000 nM and the maximal effect (Emax) came out at 7%. Besides, at human M2 mAChR, the EC50 was above 34 nM and the “M2 Top (%)” value was determined as 3%.
